Reference: patent publication US4226878A, “Imidazole derivative” (Kissei Pharmaceutical Co., Ltd., priority 1978, dated 1980)
Counter-ions that a name gives are not always drawn.

Experiments:
[1] = biological target: T1, thromboxane synthetase from rabbit platelet microsomes (Oryctolagus cuniculus, UniProt G1TAZ9); experiment: inhibition of thromboxane synthetase from rabbit platelet microsomes (conversion of prostaglandin H2 into thromboxane B2); assay type: biochemical; settings: read-out: molar concentration producing a 50% inhibition of thromboxane synthetase
T1 construct: thromboxane synthetase from rabbit platelet microsomes; from tissue; host or cells: rabbit platelet microsomes
T1 sequence (G1TAZ9 1-530): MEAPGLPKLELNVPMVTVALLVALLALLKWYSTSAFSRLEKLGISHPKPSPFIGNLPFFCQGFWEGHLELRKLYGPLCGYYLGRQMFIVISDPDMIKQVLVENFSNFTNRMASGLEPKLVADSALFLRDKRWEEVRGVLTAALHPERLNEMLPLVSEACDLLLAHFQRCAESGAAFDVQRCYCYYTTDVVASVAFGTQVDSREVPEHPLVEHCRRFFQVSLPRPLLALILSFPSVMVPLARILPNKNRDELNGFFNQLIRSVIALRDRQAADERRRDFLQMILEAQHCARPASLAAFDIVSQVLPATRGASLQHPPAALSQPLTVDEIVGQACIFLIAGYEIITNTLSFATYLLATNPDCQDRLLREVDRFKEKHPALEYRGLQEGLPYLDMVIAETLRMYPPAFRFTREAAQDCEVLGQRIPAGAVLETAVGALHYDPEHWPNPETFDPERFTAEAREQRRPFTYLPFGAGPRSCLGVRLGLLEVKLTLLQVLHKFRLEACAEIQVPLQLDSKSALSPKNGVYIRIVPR
Excerpt: [Nature, Vol. 261, No. 6, 17-, (1976)].
The inhibitory action of the imidazole derivatives of this invention can be confirmed by determination of thromboxane B2 produced by thromboxane synthetase from prostaglandin H2 via thromboxane A2.

thromboxane synthetase = settings: literature reports; cited from earlier work

| Compound | IC50 [1] [nM] | inhibitory effect on thromboxane synthetase (in words, prior art) (thromboxane synthetase) |
| --- | --- | --- |
| CC(=Cc1ccc(Cn2ccnc2)cc1)C(=O)O [P-(1-imidazolylmethyl)-α-methylcinnamic acid hydrochloric acid salt] | 4 | – |
| COC(=O)CCCCCCn1ccnc1 [1-(6-methoxycarbonylhexyl) imidazole] | – | inhibitory effect |
| CC(C)c1ccccc1-n1ccnc1 [1-(2-isopropylphenyl)imidazole] | – | strong inhibitory effect |
| CCCCCCCCCn1ccnc1 [1-nonylimidazole] | – | strong inhibitory effect |
| c1c[nH]cn1 [imidazole] | – | very weak inhibitory effect |
| CCCCCCCCCCn1ccnc1 [1-decylimidazole] | – | strong inhibitory effect |
| c1ccc(Cn2ccnc2)cc1 [1-benzylimidazole] | – | strong inhibitory effect |
